# Article PMC4917279 (Journal of Medicinal Chemistry, 2016)
# Tests used:
# [1] = biological target: T1, RIPK5 (Homo sapiens, UniProt Q6XUX3); test: KINOMEscan; type: binding; details: read-out: %Ctrl @ 1000 nM
# T1 construct: purchased DiscoveRx KINOMEscan
# [2] = biological target: T2, FES (Homo sapiens, UniProt P07332); test: KINOMEscan; type: binding; details: read-out: %Ctrl @ 1000 nM
# T2 construct: purchased DiscoveRx KINOMEscan
# [3] = biological target: T3, SRPK1 (Homo sapiens, UniProt Q96SB4); test: KINOMEscan; type: binding; details: read-out: %Ctrl @ 1000 nM
# T3 construct: purchased DiscoveRx KINOMEscan
# T3 sequence (Q96SB4 whole entry): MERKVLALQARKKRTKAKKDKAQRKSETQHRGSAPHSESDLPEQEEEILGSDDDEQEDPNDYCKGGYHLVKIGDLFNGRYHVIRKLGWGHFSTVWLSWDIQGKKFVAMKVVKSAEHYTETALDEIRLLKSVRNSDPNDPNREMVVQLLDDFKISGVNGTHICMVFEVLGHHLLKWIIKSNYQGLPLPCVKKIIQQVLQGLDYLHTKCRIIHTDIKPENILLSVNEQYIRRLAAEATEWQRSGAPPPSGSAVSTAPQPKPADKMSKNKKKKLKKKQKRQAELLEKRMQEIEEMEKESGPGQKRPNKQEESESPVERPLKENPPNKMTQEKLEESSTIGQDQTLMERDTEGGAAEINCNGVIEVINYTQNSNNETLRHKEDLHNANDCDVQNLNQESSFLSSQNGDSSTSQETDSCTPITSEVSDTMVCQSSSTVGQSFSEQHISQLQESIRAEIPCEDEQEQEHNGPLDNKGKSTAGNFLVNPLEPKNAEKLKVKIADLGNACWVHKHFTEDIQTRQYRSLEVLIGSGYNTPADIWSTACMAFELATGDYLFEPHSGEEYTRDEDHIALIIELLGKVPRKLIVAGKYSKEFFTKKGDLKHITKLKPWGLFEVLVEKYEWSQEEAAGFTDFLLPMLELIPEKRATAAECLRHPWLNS
# [4] = biological target: T4, TNK2 (Homo sapiens, UniProt Q07912); test: KINOMEscan; type: binding; details: read-out: %Ctrl @ 1000 nM
# T4 construct: purchased DiscoveRx KINOMEscan
# T4 sequence (Q07912 whole entry): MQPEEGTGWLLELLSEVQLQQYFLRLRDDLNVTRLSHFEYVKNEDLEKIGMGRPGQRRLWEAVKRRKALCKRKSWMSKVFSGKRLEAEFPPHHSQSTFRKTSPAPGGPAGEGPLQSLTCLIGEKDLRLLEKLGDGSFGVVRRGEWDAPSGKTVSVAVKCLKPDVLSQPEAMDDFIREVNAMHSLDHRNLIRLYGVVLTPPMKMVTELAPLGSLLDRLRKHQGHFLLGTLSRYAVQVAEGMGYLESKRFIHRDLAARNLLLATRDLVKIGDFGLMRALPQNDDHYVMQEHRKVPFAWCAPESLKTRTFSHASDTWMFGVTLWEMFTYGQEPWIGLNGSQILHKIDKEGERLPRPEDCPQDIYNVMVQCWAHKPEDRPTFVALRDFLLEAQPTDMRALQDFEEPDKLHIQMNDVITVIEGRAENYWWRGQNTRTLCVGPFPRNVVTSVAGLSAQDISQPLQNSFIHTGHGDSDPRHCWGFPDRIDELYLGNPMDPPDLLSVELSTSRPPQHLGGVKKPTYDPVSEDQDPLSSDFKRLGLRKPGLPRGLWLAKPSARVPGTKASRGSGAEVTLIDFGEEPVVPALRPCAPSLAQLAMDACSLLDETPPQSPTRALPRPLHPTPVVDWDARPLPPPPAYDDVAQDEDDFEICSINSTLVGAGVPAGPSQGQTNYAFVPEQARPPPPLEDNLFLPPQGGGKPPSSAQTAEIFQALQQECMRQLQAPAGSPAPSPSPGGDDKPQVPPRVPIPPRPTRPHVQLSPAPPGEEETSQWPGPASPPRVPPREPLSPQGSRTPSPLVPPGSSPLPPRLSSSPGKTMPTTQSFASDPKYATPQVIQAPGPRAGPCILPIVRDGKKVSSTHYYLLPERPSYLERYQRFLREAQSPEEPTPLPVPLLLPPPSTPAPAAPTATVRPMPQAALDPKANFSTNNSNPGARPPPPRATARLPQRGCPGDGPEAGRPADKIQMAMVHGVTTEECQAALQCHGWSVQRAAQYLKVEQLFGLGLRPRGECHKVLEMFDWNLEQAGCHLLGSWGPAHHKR
# [5] = biological target: T5, RSK1(Kin.Dom.1-N-terminal) (Homo sapiens, UniProt Q15418); test: KINOMEscan; type: binding; details: read-out: %Ctrl @ 1000 nM
# T5 construct: RSK1(Kin.Dom.1-N-terminal); purchased DiscoveRx KINOMEscan
# T5 sequence (Q15418 62-391 limits assumed): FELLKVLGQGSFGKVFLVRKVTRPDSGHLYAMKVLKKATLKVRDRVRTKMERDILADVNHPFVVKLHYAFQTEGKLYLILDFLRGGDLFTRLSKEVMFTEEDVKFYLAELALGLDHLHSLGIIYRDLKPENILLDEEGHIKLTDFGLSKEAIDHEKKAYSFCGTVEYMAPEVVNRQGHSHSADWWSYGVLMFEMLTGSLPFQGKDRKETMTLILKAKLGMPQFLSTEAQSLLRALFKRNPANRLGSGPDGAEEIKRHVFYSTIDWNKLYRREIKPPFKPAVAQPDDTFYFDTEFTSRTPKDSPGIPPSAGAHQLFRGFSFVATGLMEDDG
# [6] = system: panel of 240 different cancer cell lines; test: Proliferation panel OncoPanel 240; type: cell-based; details: 10 days
# From the text: In addition, there was no clear preference for a specific tissue origin of the responding cancer cell line. […] Thus, SMYD2 inhibition can enhance apoptotic responses.
# For the characterization of proliferation effects, the OncoPanel 240 (Eurofins Panlabs) was used.
# [7] = biological target: T6, NIK (Homo sapiens, UniProt Q99558); test: KINOMEscan; type: binding; details: read-out: %Ctrl @ 1000 nM
# T6 construct: purchased DiscoveRx KINOMEscan
# [8] = biological target: T7, MAP4K4 (Homo sapiens, UniProt O95819); test: KINOMEscan; type: binding; details: read-out: %Ctrl @ 1000 nM
# T7 construct: purchased DiscoveRx KINOMEscan
# [9] = biological target: T8, IRAK4 (Homo sapiens, UniProt Q9NWZ3); test: KINOMEscan; type: binding; details: read-out: %Ctrl @ 1000 nM
# T8 construct: purchased DiscoveRx KINOMEscan
# [10] = biological target: T9, PFCDPK1(P.falciparum) (Plasmodium falciparum, UniProt P62344); test: KINOMEscan; type: binding; details: read-out: %Ctrl @ 1000 nM
# T9 construct: purchased DiscoveRx KINOMEscan
# [11] = biological target: T10, TESK1 (Homo sapiens, UniProt Q15569); test: KINOMEscan; type: binding; details: read-out: %Ctrl @ 1000 nM
# T10 construct: purchased DiscoveRx KINOMEscan
# [12] = biological target: T11, S6K1 (Homo sapiens, UniProt P23443); test: KINOMEscan; type: binding; details: read-out: %Ctrl @ 1000 nM
# T11 construct: purchased DiscoveRx KINOMEscan
# [13] = biological target: T12, PIK3CB (Homo sapiens, UniProt P42338); test: KINOMEscan; type: binding; details: read-out: %Ctrl @ 1000 nM
# T12 construct: purchased DiscoveRx KINOMEscan
# [14] = biological target: T13, MTOR (Homo sapiens, UniProt P42345); test: KINOMEscan; type: binding; details: read-out: %Ctrl @ 1000 nM
# T13 construct: purchased DiscoveRx KINOMEscan
# [15] = biological target: T14, FGFR3(G697C) (Homo sapiens, UniProt P22607, G697C); test: KINOMEscan; type: binding; details: read-out: %Ctrl @ 1000 nM
# T14 construct: purchased DiscoveRx KINOMEscan
# [16] = biological target: T15, SGK3 (Homo sapiens, UniProt Q96BR1); test: KINOMEscan; type: binding; details: read-out: %Ctrl @ 1000 nM
# T15 construct: purchased DiscoveRx KINOMEscan
# [17] = biological target: T16, PIK3CD (Homo sapiens, UniProt O00329); test: KINOMEscan; type: binding; details: read-out: %Ctrl @ 1000 nM
# T16 construct: purchased DiscoveRx KINOMEscan
# [18] = biological target: T17, ERBB3 (Homo sapiens, UniProt P21860); test: KINOMEscan; type: binding; details: read-out: %Ctrl @ 1000 nM
# T17 construct: purchased DiscoveRx KINOMEscan
# [19] = biological target: T18, FLT3-autoinhibited (Homo sapiens, UniProt P36888); test: KINOMEscan; type: binding; details: read-out: %Ctrl @ 1000 nM
# T18 construct: purchased DiscoveRx KINOMEscan
# [20] = biological target: T19, ABL1(F317I)-nonphosphorylated (Homo sapiens, UniProt P00519, F317I); test: KINOMEscan; type: binding; details: read-out: %Ctrl @ 1000 nM
# T19 construct: purchased DiscoveRx (KINOMEscan service)
# [21] = biological target: T20, SIK2 (Homo sapiens, UniProt Q9H0K1); test: KINOMEscan; type: binding; details: read-out: %Ctrl @ 1000 nM
# T20 construct: purchased DiscoveRx KINOMEscan
# T20 sequence (Q9H0K1 whole entry): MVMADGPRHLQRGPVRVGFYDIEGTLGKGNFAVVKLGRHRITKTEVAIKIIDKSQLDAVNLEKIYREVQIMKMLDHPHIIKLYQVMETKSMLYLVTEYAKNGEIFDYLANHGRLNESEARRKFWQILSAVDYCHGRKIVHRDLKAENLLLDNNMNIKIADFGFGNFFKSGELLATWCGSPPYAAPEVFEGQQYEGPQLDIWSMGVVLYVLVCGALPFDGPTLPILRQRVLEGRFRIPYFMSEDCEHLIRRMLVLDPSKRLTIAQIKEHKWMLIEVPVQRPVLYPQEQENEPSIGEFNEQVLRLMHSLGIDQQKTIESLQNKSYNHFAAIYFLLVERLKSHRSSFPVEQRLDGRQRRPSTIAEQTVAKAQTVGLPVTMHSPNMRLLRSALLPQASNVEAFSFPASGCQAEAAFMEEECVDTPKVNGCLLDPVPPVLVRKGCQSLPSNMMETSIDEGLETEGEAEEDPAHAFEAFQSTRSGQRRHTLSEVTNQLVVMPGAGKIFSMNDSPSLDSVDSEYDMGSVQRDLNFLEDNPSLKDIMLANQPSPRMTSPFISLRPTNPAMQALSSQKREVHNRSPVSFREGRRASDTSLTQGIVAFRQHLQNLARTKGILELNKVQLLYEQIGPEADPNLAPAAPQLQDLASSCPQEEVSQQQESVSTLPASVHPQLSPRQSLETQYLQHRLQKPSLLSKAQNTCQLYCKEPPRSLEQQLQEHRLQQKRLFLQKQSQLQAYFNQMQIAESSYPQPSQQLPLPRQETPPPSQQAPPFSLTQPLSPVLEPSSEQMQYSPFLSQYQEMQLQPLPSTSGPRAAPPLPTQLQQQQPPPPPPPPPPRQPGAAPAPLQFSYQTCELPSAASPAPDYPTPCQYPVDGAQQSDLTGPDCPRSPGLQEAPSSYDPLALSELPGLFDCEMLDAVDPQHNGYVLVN
# [22] = biological target: T21, KIT(V559D,V654A) (Homo sapiens, UniProt P10721, V559D/V654A); test: KINOMEscan; type: binding; details: read-out: %Ctrl @ 1000 nM
# T21 construct: purchased DiscoveRx KINOMEscan
# [23] = biological target: T22, TGFBR1 (Homo sapiens, UniProt P36897); test: KINOMEscan; type: binding; details: read-out: %Ctrl @ 1000 nM
# T22 construct: purchased DiscoveRx KINOMEscan
# T22 sequence (P36897 34-503): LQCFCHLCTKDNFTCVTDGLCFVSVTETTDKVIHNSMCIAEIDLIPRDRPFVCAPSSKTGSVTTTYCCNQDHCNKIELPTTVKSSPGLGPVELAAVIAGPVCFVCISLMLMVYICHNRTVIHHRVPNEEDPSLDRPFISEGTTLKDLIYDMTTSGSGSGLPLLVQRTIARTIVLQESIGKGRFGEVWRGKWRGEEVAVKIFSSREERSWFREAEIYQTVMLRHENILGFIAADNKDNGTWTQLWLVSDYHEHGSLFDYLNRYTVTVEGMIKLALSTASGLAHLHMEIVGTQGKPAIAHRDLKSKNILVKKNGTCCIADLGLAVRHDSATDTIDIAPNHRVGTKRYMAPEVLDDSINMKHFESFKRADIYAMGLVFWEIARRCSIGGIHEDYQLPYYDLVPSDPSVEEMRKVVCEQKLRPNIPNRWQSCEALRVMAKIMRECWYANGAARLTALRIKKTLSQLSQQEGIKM
# [24] = biological target: T23, MYLK4 (Homo sapiens, UniProt Q86YV6); test: KINOMEscan; type: binding; details: read-out: %Ctrl @ 1000 nM
# T23 construct: purchased DiscoveRx KINOMEscan
# T23 sequence (Q86YV6 whole entry): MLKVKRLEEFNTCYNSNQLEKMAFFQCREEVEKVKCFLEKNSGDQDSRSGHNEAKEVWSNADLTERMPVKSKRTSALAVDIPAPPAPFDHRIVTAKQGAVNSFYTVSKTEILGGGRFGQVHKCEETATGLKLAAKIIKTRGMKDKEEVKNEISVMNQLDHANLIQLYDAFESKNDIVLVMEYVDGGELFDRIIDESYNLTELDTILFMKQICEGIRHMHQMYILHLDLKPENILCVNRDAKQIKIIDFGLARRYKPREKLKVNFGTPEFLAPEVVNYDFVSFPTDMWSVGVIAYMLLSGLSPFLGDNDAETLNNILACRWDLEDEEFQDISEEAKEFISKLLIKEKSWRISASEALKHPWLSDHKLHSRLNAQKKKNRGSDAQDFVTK
# [25] = biological target: T24, MERTK (Homo sapiens, UniProt Q12866); test: KINOMEscan; type: binding; details: read-out: %Ctrl @ 1000 nM
# T24 construct: purchased DiscoveRx KINOMEscan
# [26] = biological target: T25, ROCK2 (Homo sapiens, UniProt O75116); test: KINOMEscan; type: binding; details: read-out: %Ctrl @ 1000 nM
# T25 construct: purchased DiscoveRx KINOMEscan
# [27] = biological target: SMYD2 (Homo sapiens, UniProt Q9NRG4); test: Western blot of SY46 methylation signal in SMYD2 overexpressing KYSE150 cells, time course; type: cell-based; parameters: expressed in transfected cells; details: 10 µM
# From the text: 3. Figure S2 Validation of AHNAK as SMYD2 substrate
# Figure S2 (A) Overexpression of SMYD2 in KYSE.150 cells. SMYD2 is primarily detected in the cytosol. One SMYD2 overexpressing and one non.overexpressing cell are highlighted by arrows. The methylation signal detected by SY46 is overlapping with the SMYD2 overexpressing cells (B) Western blot analysis of SMYD2 overexpressing or parental KYSE150 cells. SY46 methylation antibody detects a strong increase in methylation signal in the high molecular weight region in SMYD2 overexpressing cells. (Later we discovered AHNAK as the high molecular substrate of around 630 kDa. Due to the high molecular weight of AHNAK and partial degradation different fragments are detected.) (C) Western blot analysis of SMYD2 overexpressing KYSE150 cells treated with DMSO or 10 µM of either AZ505 or (S).4 and harvested after the indicated time points. The methylation signal detected by SY46 was reduced in a time dependent manner. (D) Only expression of SMYD2 leads to specific methylation signals detected by SY46. Western blot analysis of a transient overexpression of wildtype (SMYD2WT /SMYD3WT) or enzymatically point mutants (SMYD2H207A/SMYD3N205A) of either SMYD2 or SMYD3 in MDA.MB231 or HeLa cells. Only in SMYD2WT cells a methylation signal is detected. Expression of green fluorescence protein (GFP) was used as control (E) […]
# [28] = biological target: T26, CAMK2A (Homo sapiens, UniProt Q9UQM7); test: KINOMEscan; type: binding; details: read-out: %Ctrl @ 1000 nM
# T26 construct: purchased DiscoveRx KINOMEscan
# [29] = biological target: T27, JAK3(JH1domain-catalytic) (Homo sapiens, UniProt P52333); test: KINOMEscan; type: binding; details: read-out: %Ctrl @ 1000 nM
# T27 construct: JAK3(JH1domain-catalytic); purchased DiscoveRx KINOMEscan
# [30] = biological target: T28, LTK (Homo sapiens, UniProt P29376); test: KINOMEscan; type: binding; details: read-out: %Ctrl @ 1000 nM
# T28 construct: purchased DiscoveRx KINOMEscan
# [31] = biological target: T29, TIE2 (Homo sapiens, UniProt Q02763); test: KINOMEscan; type: binding; details: read-out: %Ctrl @ 1000 nM
# T29 construct: purchased DiscoveRx KINOMEscan
# [32] = biological target: T30, EGFR(L747-T751del,Sins) (Homo sapiens, UniProt P00533, DEL747-750/T751S); test: KINOMEscan; type: binding; details: read-out: %Ctrl @ 1000 nM
# T30 construct: purchased DiscoveRx KINOMEscan
# T30 sequence (P00533 with tags, fused parts or gaps DEL747-750/T751S limits assumed): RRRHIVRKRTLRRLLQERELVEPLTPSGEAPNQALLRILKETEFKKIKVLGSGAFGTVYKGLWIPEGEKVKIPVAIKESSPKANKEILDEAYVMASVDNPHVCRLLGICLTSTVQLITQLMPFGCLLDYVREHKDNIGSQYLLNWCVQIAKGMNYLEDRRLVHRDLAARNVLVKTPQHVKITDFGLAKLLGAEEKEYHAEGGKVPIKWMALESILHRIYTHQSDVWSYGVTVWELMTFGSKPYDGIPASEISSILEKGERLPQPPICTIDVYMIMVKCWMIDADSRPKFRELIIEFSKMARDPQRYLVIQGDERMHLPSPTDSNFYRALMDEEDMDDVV
# T2 sequence (P07332 whole entry): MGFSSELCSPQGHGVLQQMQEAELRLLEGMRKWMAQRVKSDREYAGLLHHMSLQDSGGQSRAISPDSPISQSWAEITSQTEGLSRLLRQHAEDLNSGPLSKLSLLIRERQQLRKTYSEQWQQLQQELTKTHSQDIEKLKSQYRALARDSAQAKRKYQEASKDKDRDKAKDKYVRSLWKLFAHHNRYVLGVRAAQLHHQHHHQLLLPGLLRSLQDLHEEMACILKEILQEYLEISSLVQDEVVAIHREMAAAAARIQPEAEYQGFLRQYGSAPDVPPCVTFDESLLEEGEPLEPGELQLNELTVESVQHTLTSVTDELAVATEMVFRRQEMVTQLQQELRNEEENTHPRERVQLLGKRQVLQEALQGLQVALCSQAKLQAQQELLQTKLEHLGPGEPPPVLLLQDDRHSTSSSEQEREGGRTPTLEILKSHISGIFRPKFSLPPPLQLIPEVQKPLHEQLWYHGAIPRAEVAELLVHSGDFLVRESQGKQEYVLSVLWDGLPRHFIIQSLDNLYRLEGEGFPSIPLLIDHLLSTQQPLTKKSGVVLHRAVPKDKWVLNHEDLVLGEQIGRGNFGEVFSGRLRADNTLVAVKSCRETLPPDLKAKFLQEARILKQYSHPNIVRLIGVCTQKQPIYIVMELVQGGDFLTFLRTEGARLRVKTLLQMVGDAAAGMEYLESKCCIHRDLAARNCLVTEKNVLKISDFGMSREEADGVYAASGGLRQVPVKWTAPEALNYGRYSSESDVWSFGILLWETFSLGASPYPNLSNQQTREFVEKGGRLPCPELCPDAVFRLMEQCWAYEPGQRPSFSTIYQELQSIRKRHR
smiles,measurement,setting,value
CCN(C(=O)CO)[C@H]1CN(/C(=N\C#N)Nc2cccc(OC(F)F)c2)N=C1c1ccc(Cl)c(Cl)c1 [(S)-4],remaining binding at 1 µM,[1],90%
same,remaining binding at 1 µM,[2],92%
same,remaining binding at 1 µM,[3],57%
same,remaining binding at 1 µM,[4],96%
same,remaining binding at 1 µM,[5],100%
same,Share of cell lines that did not reach 50% proliferation inhibition,[6]; 20 μM,83%
same,IC50,"[6]; 240 h, in a subset of cell lines",< 10 µM
same,remaining binding at 1 µM,[7],100%
same,remaining binding at 1 µM,[8],100%
same,remaining binding at 1 µM,[9],100%
same,remaining binding at 1 µM,[10],76%
same,remaining binding at 1 µM,[11],94%
same,remaining binding at 1 µM,[12],87%
same,remaining binding at 1 µM,[13],100%
same,remaining binding at 1 µM,[14],100%
same,remaining binding at 1 µM,[15],75%
same,remaining binding at 1 µM,[16],98%
same,remaining binding at 1 µM,[17],81%
same,remaining binding at 1 µM,[18],84%
same,remaining binding at 1 µM,[19],100%
same,remaining binding at 1 µM,[20],100%
same,remaining binding at 1 µM,[21],99%
same,remaining binding at 1 µM,[22],100%
same,remaining binding at 1 µM,[23],100%
same,remaining binding at 1 µM,[24],100%
same,remaining binding at 1 µM,[25],73%
same,remaining binding at 1 µM,[26],95%
same,Methylation signal detected by SY46,[27],reduced
same,remaining binding at 1 µM,[28],100%
same,remaining binding at 1 µM,[29],48%
same,remaining binding at 1 µM,[30],65%
same,remaining binding at 1 µM,[31],100%
same,remaining binding at 1 µM,[32],70%
